Test in all cases: inhibition of tumour cell growth, NCI panel, 48 h
For assay [1], the system named is M14 melanoma.
The subject of assay [2] is OVCAR-4 ovarian.
Assay [3] concerns BT-549 breast.
Assay [4] concerns SK-MEL-2 melanoma.
Assay [5] has as its system SF-295 CNS.
Assay [6] has as its system HL-60(TB) leukemia.
Assay [7] deals with HCC-2998 colon.
The test system of assay [8] is A549 NSCLC.
The test system of assay [9] is MOLT-4 leukemia.
The test system of assay [10] is RXF 393 renal.

The source of these data is PubChem BioAssay (NCI).

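In this assay, cells in 96-well plates receive the compound at five concentrations for 48 hours. Endpoints are linearly interpolated between the surrounding concentrations. GI50 is the concentration that inhibits growth by half. TGI: concentration producing complete growth inhibition.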 Some results are limits rather than exact numbers.

As for `O=C(CC(c1ccccc1)C1C(=O)NC(=S)NC1=O)c1ccc([N+](=O)[O-])cc1` (centres undefined), the TGI in assay [1], in [2], in assay [3], in assay [4], in assay [5] and in [6] was greater than 100 µM throughout. In addition, the TGI in assay [7], in assay [8] and in assay [9] was greater than 100 µM each time.
As for `Nc1nnc(CCC(=O)Nc2cc(Cl)ccc2Cl)n1N`, the TGI in [1], in assay [10], in assay [2], in [4], in [5] and in assay [6] was greater than 100 µM throughout. Moreover, the TGI in [7], in assay [8] and in [9] was greater than 100 µM in each case.
Take `Cc1oc(N)c(S(=O)(=O)c2cc3ccccc3n(O)c2=N)c1C`: the TGI in assay [1], in assay [2], in assay [3], in assay [4], in assay [5] and in [7] was greater than 100 µM in each case. In addition, the TGI in [8] and in assay [9] was greater than 100 µM in each case.
Turning to `Nc1cc(S(=O)(=O)O)cc2ccc(S(=O)(=O)O)cc12`, the TGI in [1], in assay [10], in assay [2], in [3], in [4] and in assay [5] was greater than 100 µM in each case. Moreover, the TGI in assay [6], in [7] and in assay [8] was greater than 100 µM in each case.
`Clc1ccc(Nc2nc(Nc3ccccc3)nc(Nc3ccc(-c4cc(-c5ccc(Cl)cc5)on4)cc3)n2)cc1`: the GI50 in assay [10] was 11.3 µM; in [2], 15.4 µM; in assay [3], 32.9 µM; in assay [4], 24.1 µM; in assay [5] it was 12.6 µM; in assay [6] it was 51.5 µM. In addition, the figures for the GI50 in assay [7], in assay [8] and in assay [9] were 29.1 µM, 19.2 µM and 21 µM, respectively. Further, the TGI in assay [10] was 37.6 µM; in assay [2], greater than 100 µM; in assay [3], greater than 100 µM; in [4] it was greater than 100 µM; in assay [5], 77.6 µM; in assay [6] it was greater than 100 µM. The TGI in assay [7], in assay [8] and in assay [9] was greater than 100 µM each time.
For `O=C(O)C(O)C(O)C(O)C(O)C(=O)O` (centres undefined), the TGI in assay [1], in assay [10], in assay [2], in assay [4], in assay [5] and in assay [6] was greater than 100 µM throughout. For the same compound, the TGI in assay [7], in assay [8] and in assay [9] was greater than 100 µM in each case.
Take `Cn1c2[n+](c3nc(N)[nH]c(=O)c31)C1OC(C2)C(O)C1O` (centres undefined): the TGI in assay [1], in assay [10], in assay [2], in assay [4], in assay [5] and in assay [6] was greater than 100 µM in each case. Besides, the TGI in [7], in assay [8] and in [9] was greater than 100 µM in each case.
In the case of `O=C(Nc1ccc(-n2ccc3c(NC(=O)c4ccccc4)nccc32)cc1)Nc1cccc(C(F)(F)F)c1`, the GI50 in [1] was 3.83 µM; in assay [10], 2.24 µM; in [2], 2.65 µM; in [4], 15 µM; in [5], 3.75 µM; in [6] it was 3.92 µM. For the same compound, the GI50 in assay [7] is 7.46 µM; in assay [8], 3.25 µM; in assay [9], 2.65 µM. The TGI came to 15.7 µM in [1]; 7.64 µM in assay [10]; 10.5 µM in assay [2]; 30.3 µM in [4]; 18.8 µM in [5]; 14.2 µM in assay [6]. Further, the results for the TGI in [7], in assay [8] and in assay [9] were 22.4 µM, 10.9 µM and 10.9 µM, respectively.
For `Cc1cc(C)c2c(=O)n(CC(O)CN3CCN(CCOCCO)CC3)sc2n1` (centres undefined), the TGI is 33.5 µM in assay [1]; 21 µM in [10]; 34.5 µM in assay [2]; 31.1 µM in assay [3]; 39.9 µM in assay [4]; greater than 100 µM in assay [5]. The TGI in [6] is 54.4 µM; in assay [8], greater than 100 µM; in assay [9] it was 73.5 µM.
With `CN(C)C(=O)OC1=CC2CCC(C1)N2C` (centres undefined), the TGI in [1], in [10], in assay [2], in assay [3], in assay [4] and in assay [5] was greater than 100 µM throughout. The TGI in assay [8] and in assay [9] was greater than 100 µM throughout.
`O=C1/C(=C/c2[nH]ncc2-c2ccc(Cl)cc2)C(=O)N(c2ccccc2)C1c1ccccc1` (centres undefined): the TGI came out at 26 µM in assay [1]; 49.4 µM in assay [10]; 96.5 µM in assay [2]; 43.7 µM in assay [3]; 35.2 µM in assay [4]; 50.7 µM in [5]. Further, the TGI in assay [6] was 37 µM; in assay [8], greater than 100 µM; in [9], 41 µM.
`O/C(=C\c1nc2ccccc2nc1/C=C(\O)c1ccc(F)cc1)c1ccc(F)cc1`: the TGI in assay [1], in assay [10], in assay [2], in assay [3], in [4] and in assay [6] was greater than 100 µM in each case. In addition, the TGI in [7], in assay [8] and in [9] was greater than 100 µM each time.
